From patent publication US6846925B2, “Colchinol derivatives as angiogenesis inhibitors” (Angiogene Pharmaceuticals Limited, priority 2000, dated 2005)

Columns and labels:
[1] = tested on: Hras5 tumours (NIH 3T3 fibroblasts transfected with Harvey ras, clone 5); assay: Hras5 necrosis model; assay type: in vivo, nude mice; conditions: single dose, culled 24 hours after dosing
Description: NIH 3T3 fibroblasts transfected with Harvey ras, clone 5, (Hras5 cells) were kept in continual passage in Dulbecco's modifed Eagles medium (DMEM) containing 10% foetal bovine serum (FBS) and 1% glutamine, at 37° C. in a humidified incubator gassed with 7.5% carbon dioxide and […]. Cells were implanted subcutaneously into the left flank of male nude mice (8-10 weeks of age) at an inoculum of 2×10^5 cells/mouse. Tumours were measured using calipers and randomised into groups of 2-4 mice between days 9-14 after implant. Mice were dosed with compounds, either intravenously or intraperitoneally, once on day of randomisation and culled 24 hours after dosing. Compounds were dissolved in 20% hydroxypropyl beta cyclodextrin in physiological saline at pH 7 and dosed in a volume of 0.1 ml per 10 g body weight. Tumours were excised, weighed and placed in buffered formalin. Area of necrosis in individual tumours was assessed from a haematoxylin/eosin stained-slide by a pathologist and scored from 0, meaning no significant change, to 10, meaning 91-100% necrosis. The activity of examples 5 and 7 (described hereinafter) against tumour vasculature was measured by the fluorescent dye method described hereinabove. Example 1 scored 6.0 at 100 m/kg and example 4 scored 3.2 at 50 m/kg.

[2] = tested on: tumour vasculature of CaNT tumours; assay: Activity against tumour vasculature measured by fluorescent dye (Hoechst 33342); assay type: in vivo; conditions: CaNT tumour-bearing mice, 50 mg/kg intraperitoneally, dye 24 hours after drug treatment
Description: (b) Activity Against Tumour Vasculature Measured by Fluorescent Dye
Tumour functional vascular volume in CaNT tumour-bearing mice was measured using the fluorescent dye Hoechst 33342 according to the method of Smith et al (Brit. Jnl. Cancer 1988, 57, 247-253). Five animals were used in control and treated groups. The fluorescent dye was dissolved in saline at 6.25 mg/ml and injected intravenously at 10 mg/kg 24 hours after intraperitoneal drug treatment. One minute later, animals were killed and tumours excised and frozen; 10 μm sections were cut at 3 different levels and observed under UV illumination using an Olympus microscope equipped with epifluorescence. Blood vessels were identified by their fluorescent outlines and vascular volume was quantified using a point scoring system based on that described by Chalkley, (Jnl. Natl. Cancer Inst., 1943, 4, 47-53). All estimates were based on counting a minimum of 100 fields from sections cut at the 3 different levels.

[3] = tested on: tubulin; conditions: O. Boye et al Med. Chem. Res., 1991, 1, 142-150; read-out: IC50 in a tubulin polymerisation assay; cited from earlier work

COc1ccc2c(c1)[C@@H](NC(=O)CNC(=O)CN)CCc1cc(OC)c(OC)c(OC)c1-2 [Example 1, N-[(5S)-3,9,10,11-Tetramethoxy-6,7-dihydro-5H-dibenzo[a,c]cyclohepten-5-yl]-2-[2-aminoacetylamino]acetamide]
necrosis score (0 = no significant change, 10 = 91-100% necrosis) ([1]; 100 m/kg): 6.0

COc1ccc2c(c1)[C@@H](NC(=O)OCCOP(=O)([O-])[O-])CCc1cc(OC)c(OC)c(OC)c1-2.[Na+].[Na+] [Example 4, 2-{N-[(5S)-3,9,10,11-tetramethoxy-6,7-dihydro-5H-dibenzo[a,c]cyclohepten-5-yl]carbamoyloxy}ethyl disodium phosphate]
necrosis score (0 = no significant change, 10 = 91-100% necrosis) ([1]; 50 m/kg): 3.2

COc1cc2c(c(OC)c1OC)-c1ccc(N)cc1C(NC(C)=O)CC2 (stereo not shown) [N-[3-amino-9,10,11-trimethoxy-6,7-dihydro-5H-dibenzo[a,c]cyclohepten-5-yl]acetamide]
decrease of perfused vascular volume relative to control [2]: 88%
IC50 [3]: 58 µM
